Where “and” joins values, the source holds several entries; their conditions need not be identical. Equal values may be shown once.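 Compound exposure: 48 hours, 5 concentrations, 96-well plates. GI50 = concentration required for 50% inhibition of growth. TGI denotes the concentration required for complete inhibition of growth.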
Columns and labels:
Experiment in all cases: growth of human tumour cells (NCI), 48 h
SK-OV-3 ovarian = test system: SK-OV-3 ovarian
KM12 colon = test system: KM12 colon
SK-MEL-28 melanoma = test system: SK-MEL-28 melanoma
CCRF-CEM leukemia = test system: CCRF-CEM leukemia
OVCAR-3 ovarian = test system: OVCAR-3 ovarian
HCT-15 colon = test system: HCT-15 colon
UACC-257 melanoma = test system: UACC-257 melanoma
HL-60(TB) leukemia = test system: HL-60(TB) leukemia
SNB-19 CNS = test system: SNB-19 CNS
MCF7 breast = test system: MCF7 breast

SMILES	GI50 (SK-OV-3 ovarian) [µM]	TGI (SK-OV-3 ovarian)	GI50 (KM12 colon) [µM]	TGI (KM12 colon)	GI50 (SK-MEL-28 melanoma) [µM]	TGI (SK-MEL-28 melanoma)	GI50 (CCRF-CEM leukemia)	TGI (CCRF-CEM leukemia)	GI50 (OVCAR-3 ovarian) [µM]	TGI (OVCAR-3 ovarian)	GI50 (HCT-15 colon)	TGI (HCT-15 colon)	GI50 (UACC-257 melanoma)	TGI (UACC-257 melanoma)	GI50 (HL-60(TB) leukemia)	TGI (HL-60(TB) leukemia)	GI50 (SNB-19 CNS) [µM]	TGI (SNB-19 CNS)	GI50 (MCF7 breast)	TGI (MCF7 breast)
Nc1nc(Cl)c2ncn(Cc3ccc(C45CC6CC(CC(C6)C4)C5)c(OCc4cc(F)c(F)cc4F)c3)c2n1	6.02	42.2 µM	2.93	9.13 µM	8.12	26.3 µM	1.66 µM	4.16 µM	2.09	14.7 µM	3.57 µM	14.1 µM	0.494 µM	3.97 µM	1.06 µM	2.85 µM	6.48	46.6 µM	3.12 µM	16.3 µM
CN(C)CCCOc1ccc(NC2=C(Cl)C(=O)C(Nc3ccc(OCCCN(C)C)cc3)=C(Cl)C2=O)cc1	1.82	3.34 µM	0.801	2.25 µM	1.74	3.16 µM	0.272 µM	2.95 µM	0.187	0.353 µM	0.411 µM	0.958 µM	0.793 µM	2.29 µM	0.732 µM	2.02 µM	1.73	3.39 µM	0.15 µM	0.376 µM
O=[N+]([O-])/C=C/c1ccc2ccccc2c1	–	9.22 µM	–	3.09 µM	–	4.65 µM	–	> 100 µM	–	> 100 µM	–	–	–	6.63 µM	–	7.8 µM	–	5.13 µM	–	> 100 µM
NC(=O)c1nc(-c2c(F)cccc2Cl)oc1Nc1ccc(C(=O)N2CCOCC2)cc1	2.58	75.2 µM	0.326	> 100 µM	13.9	> 100 µM	0.4 µM	> 100 µM	10.3	> 100 µM	2.2 µM	> 100 µM	11.9 µM	41.1 µM	0.478 µM	31.7 µM	3	> 100 µM	0.596 µM	> 100 µM
CCN(CC)CCNc1n[n+]([O-])c2cc([N+](=O)[O-])ccc2[n+]1[O-]	–	4.33 µM and 3.79 µM and 3.86 µM	–	2.72 µM and 2.99 µM and 2.41 µM	–	22.4 µM and 22.8 µM and 14.5 µM	0.263 µM and 0.111 µM and 0.138 µM	1.1 µM and 0.841 µM and 0.999 µM	–	3.15 µM and 3.02 µM and 3.73 µM	0.87 µM and 0.287 µM and 0.273 µM	5.12 µM and 3.16 µM and 2.74 µM	1.69 µM and 0.825 µM and 1.07 µM	4.14 µM and 3.08 µM and 2.43 µM	0.14 µM and 0.0691 µM and 0.0173 µM	0.381 µM and 0.278 µM and 0.0882 µM	–	6.34 µM and 6.43 µM and 5.58 µM	0.274 µM and 0.11 µM and 0.136 µM	1.91 µM and 2.17 µM and 1.99 µM
CN(C)C1C(=O)C(C(N)=O)=C(O)C2(O)C(=O)C3=C(O)c4c(O)cccc4C(C)(O)C3CC12.[Cl][Sb]([Cl])[Cl] (stereo not given)	3.79	14 µM	3.7	13.2 µM	2.81	8.57 µM	2.39 µM	11.2 µM	3.62	12.4 µM	3.59 µM	16.1 µM	3.12 µM	11.8 µM	4.01 µM	9.9 µM	–	–	3.55 µM	13 µM
Cc1cc(OC2OC(CO)C(O)C(O)C2O)ccc1O (stereo not given)	–	> 100 µM	–	> 100 µM	–	> 100 µM	–	> 100 µM	–	> 100 µM	–	> 100 µM	–	> 100 µM	–	> 100 µM	–	> 100 µM	–	> 100 µM
S=C(Sc1ccc(Cl)cc1)Sc1ccc(Cl)cc1	6.05	31.8 µM	2.74	8.64 µM	1.89	3.49 µM	0.409 µM	2.56 µM	1.74	3.12 µM	1.77 µM	4.71 µM	5.04 µM	16.6 µM	1.93 µM	8.62 µM	3.8	16 µM	2.38 µM	7.59 µM
C#COc1cccc(Nc2ncnc3cc(NC(=O)[C@@H](C)Cl)ccc23)c1	19.6	> 62.5 µM	3.25	> 62.5 µM	14	> 62.5 µM	7.45 µM	> 62.5 µM	2.68	> 62.5 µM	3.98 µM	> 62.5 µM	> 62.5 µM	> 62.5 µM	2.02 µM	8.25 µM	19.2	> 62.5 µM	18.8 µM	> 62.5 µM
COc1cc2c(c3c1c(=O)c1ccccc1n3C)C=C([N+](=O)[O-])C(C)(C)O2	–	> 100 µM	–	> 100 µM	–	–	–	> 100 µM	–	> 100 µM	–	> 100 µM	–	> 48 µM	–	> 100 µM	–	> 100 µM	–	> 100 µM
[O-][n+]1c2cccc(O)c2[n+]([O-])c2cccc(O)c21	–	> 100 µM	–	> 100 µM	–	–	–	56 µM	–	> 100 µM	–	> 100 µM	–	> 100 µM	–	> 100 µM	–	> 100 µM	–	> 100 µM
O=C1c2cccc3c(N4CCOCC4)ccc(c23)C(=O)N1CCN1CCN(CCCCCN2CCN(CCN3C(=O)c4cccc5c(N6CCOCC6)ccc(c45)C3=O)CC2)CC1	> 100	> 100 µM	–	–	> 100	> 100 µM	32.9 µM	> 100 µM	84.5	> 100 µM	> 100 µM	> 100 µM	74 µM	> 100 µM	33.7 µM	> 100 µM	> 100	> 100 µM	77.6 µM	> 100 µM
CCN(CC)CCCC(Nc1c2ccc(Cl)cc2nc2ccc(OC)cc12)c1ccc(Cl)cc1 (stereo not given)	2.05	3.89 µM	1.52	2.99 µM	1.34	2.9 µM	0.53 µM	2.07 µM	1.22	2.75 µM	0.404 µM	1.59 µM	1.68 µM	3.22 µM	1.48 µM	3.23 µM	–	–	0.348 µM	1.43 µM
Cc1ccccc1Nc1cc(O)c2c(=O)cc(-c3ccccc3)oc2c1	5.56	> 100 µM	2.38	> 100 µM	–	–	2.25 µM	> 100 µM	1.72	4.91 µM	0.678 µM	> 100 µM	–	–	2.16 µM	> 100 µM	2.98	> 100 µM	0.821 µM	> 100 µM
CCOC(=O)[C@@H](C)C[C@H](Cc1ccccc1)NC(=O)c1csc([C@@H](C[C@H](C(C)C)N(C)C(=O)CNC(=O)[C@H]2CCCCN2C)OC(C)=O)n1	0.835	> 14.3 µM	0.556	> 14.3 µM	1.52	> 14.3 µM	1.08 µM	> 14.3 µM	0.334	1.33 µM	1.49 µM	> 14.3 µM	–	–	0.312 µM	1.01 µM	0.758	> 14.3 µM	0.319 µM	> 14.3 µM
